≈ marks a conversion by molar mass, not a printed value.
Tested on: Staphylococcus aureus
Assay: Antibacterial activity against Staphylococcus aureus ATCC 6538P after 18 hrs by broth microdilution method
Assay type: functional

MIC: 32 µg/mL (≈ 48.7 µM)
Compound: CO[C@@H]1[C@H](O)[C@@H](C)O[C@@H](OC[C@H]2[C@@H]3O[C@@H]3/C=C/C(=O)[C@H](C)CC[C@H](O[C@@H]3O[C@H](C)C[C@H](O)[C@H]3O)[C@@H](C)/C=C/C(=O)O[C@@H]2C)[C@@H]1OC [NEUTRAMYCIN E]

Source: ChEMBL document CHEMBL1146587, “Purification, structure determination, and antimicrobial activity of neutramycins B-G” (2003)
